{"source": "patent US20250136934A1", "about": "“PRODUCTION OF INDUCED MIDBRAIN DOPAMINERGIC PROGENITOR CELLS FROM PLURIPOTENT STEM CELLS” (NUWACELL BIOTECHNOLOGIES CO., LTD., priority 2023, published 2025)", "test_system": "FOXA2+ imDAP cells", "assay": "FACS analysis of FOXA2 expression of imDAP cells derived from hiPSCs", "assay_type": "cell-based, human", "conditions": "4-step protocol, Day 16", "experimental": "• 1. Individualize and collect cells by either Accutase or TrypLE treatment. • 2. Wash cells with 1 ml PBS and pellet cells at 250×g for […]. • 3. Remove supernatant, add ˜200 μl of 4% PFA, mix and fix for 10 min at RT. • 4. Pellet cells at 350×g for 5 min. • 5. Wash cells by 1 ml of FACS buffer and pellet cells at 350×g for 5 min. • 6. Remove supernatant, add 200 μl/tube of FACS buffer/0.1% Triton X, mix for 10 min at RT. • 7. Wash cells by 1 ml of FACS buffer and pellet cells at 350×g for 5 min. • 8. Remove supernatant, add 200 μl/tube of primary antibody diluted in FACS buffer, mix gently, and incubate for 30 min at RT. • 9. Wash cells by 1 ml of FACS buffer and pellet cells at 350×g for 5 min. • 10. Remove supernatant, and add 200 μl of secondary antibody diluted in FACS buffer, mix gently, and incubate for 30 min at RT. • 11. Wash cells by 1 ml of FACS buffer and pellet cells at 300×g for 5 min. • 12. Remove supernatant, add 200 μl of FACS buffer, and run samples on the flow cytometer.\nOn Day-1, EB formation (Stage 1) was carried out by dissociating hiPSCs (Nuwacell) to form a single-cell suspension and resuspending it in Epic medium (Nuwacell, #RP01001) containing 10 μM Blebbistatin (MCE, #HY-13441) in T25 flasks on a belly dancer and culturing the cells overnight. On Day 0, ventral midbrain floor plate differentiation (Stage 2) was initiated by changing the medium to a Stage 2-1 differentiation medium containing DMEM: F12/B27 (plus Vitamin A) (98:2, v/v) as basal medium and supplemented with 0.2 μM LDN193189, 10 μM SB431542, 1 μg/mL SHH C24II and 1.25 μM CHIR99021 and culturing the cells for 3 Days. From Day 3, the basal medium was changed to DMEM: F12/B27 (minus Vitamin A) (98:2, v/v), and CHIR concentration was boosted to 7.5 μM until Day 10 (Stage 2-2). SB431542 was withdrawn on Day 4, and SHH C24II was withdrawn on Day 8. From Day 10 (Stage 2-3), the medium was changed to a differentiation medium containing DMEM: F12/B27 (minus Vitamin A) (98:2, v/v) as basal medium and supplemented with 0.2 μM LDN193189 and 3 μM CHIR99021. During the cell culture, each of the differentiation media was replaced every day. On Day 16 (at the end of S2-3), EBs were dissociated for single cells and collected for analysis. The cells of each group were stained with FOXA2-PE antibody (BD, #561689), the percentage of FOXA2+ imDAP cells were analyzed by flow cytometry (FIG. 5). The above experiment was repeated for three times and the derived imDAP cells were named as Lot1, Lot2 and Lot3, respectively.\nOn Day-1, EB formation (Stage 1) was carried out by dissociating hiPSCs (Nuwacell) to form a single-cell suspension and resuspending it in Epic medium (Nuwacell, #RP01001) containing 10 μM Blebbistatin (MCE, #HY-13441) in T25 flasks on a belly dancer and culturing the cells overnight. On Day 0, ventral midbrain floor plate differentiation (Stage 2) was initiated by changing the medium to a Stage 2-1 differentiation medium containing DMEM: F12/B27 (plus Vitamin A) (98:2, v/v) as basal medium and supplemented with 0.2 μM LDN193189, 20 μM SB431542, 1.2 μM CHIR99021, and 1 μg/mL SHH C24II or the combination of SHH agonists including 500 ng/mL SHH C24II, 2 μM Purmorphamine and 10 nM SAG and culturing the cells for 3 days. From Day 3, the basal medium was changed to DMEM: F12/B27 (minus Vitamin A) (98:2, v/v). Cells were exposed to Boost-CHIR concentration of 7.5 μM starting from Day 4 to Day 6 (Stage 2-2), followed by a low CHIR concentration of 1.2 μM (Stage 2-3) until Day 10. […]", "data": [{"compound": "Cc1cnc(-c2cnc(NCCNc3ccc(C#N)cn3)nc2-c2ccc(Cl)cc2Cl)[nH]1", "note": "[CHIR, CHIR99021]", "values": [{"measurement": "percentage of cells positive for FOXA2", "setting": "low CHIR concentration 1.2 μM in Stage 2-3 (Day 8 to Day 10)", "value": 91.02, "unit": "%"}, {"measurement": "percentage of cells positive for FOXA2", "setting": "low CHIR concentration 1.4 μM in Stage 2-3 (Day 8 to Day 10)", "value": 81.89, "unit": "%"}, {"measurement": "percentage of cells positive for FOXA2", "setting": "low CHIR concentration 1.6 μM in Stage 2-3 (Day 8 to Day 10)", "value": 85.96, "unit": "%"}]}]}
